Among the data in BindingDB's records for doi:10.1021/jm00076a005 (Glaxo Group Research, 1993) are IC50 values, retold here.

The target in the assay is T1, Gag-Pol polyprotein [588-1027]/[588-1147] (Human immunodeficiency virus 1, UniProt P04585).
T1 construct: 588-1027; 588-1147
Briefly: HIV-1 RT Assay. The source says:
The IC50 of reverse transcriptase is the concentration that inhibits 50% of recombinant HIV-1 RT RNA-directed DNA polymerase activity in vitro.

As to `Cc1nc(CCCCCO)n2nc(Cl)ccc12` [5-{2-chloro-5-methylimidazo[1,5-a]pyridazin-7-yl}pentan-1-ol], the IC50 (in general, the concentration that gives 50% inhibition) (pH 8, 37 °C) stood at 100 µM.
For the molecule `Cc1nc(CCCCCCC(=O)c2ccccc2)n2nc(-n3cncn3)ccc12` [7-[5-methyl-2-(1H-1,2,4-triazol-1-yl)imidazo[1,5-a]pyridazin-7-yl]-1-phenylheptan-1-one], half-maximal inhibition (IC50) required 0.1 µM.
On the same count and under the same terms, then `Cc1nc(CCCCCCC(=O)c2ccccc2)n2nc(-n3cncc3C)ccc12` [7-[5-methyl-2-(5-methyl-1H-imidazol-1-yl)imidazo[1,5-a]pyridazin-7-yl]-1-phenylheptan-1-one], with 0.1 µM.
